Experimental data as given in patent US8901118B2, “Compounds and methods for kinase modulation, and indications therefor” (Plexxikon Inc., priority 2010, dated 2014).

biological target: TrkC kinase (Homo sapiens, UniProt Q16288); experiment: TrkC kinase biochemical activity assay (similar to TrkA assay); settings: read-out: Biochemical Inhibition IC50 TrkC
Protocol: In one assay the biochemical activity IC50 values are determined with respect to inhibition of TrkA kinase activity, where inhibition of phosphorylation of a peptide substrate is measured as a function of compound concentration. Compounds to be tested, dissolved in DMSO (1 μL), are added to a white 384-well plate (Costar #3705). Working stocks of TrkA kinase (UBI), biotin-(E4Y)10 substrate (Upstate Biotech, Cat#12-440), and ATP (Sigma, Cat#A-3377) are prepared in 25 mM Hepes pH 7.5, 10 mM MnCl2, 1 mM DTT, 0.01% BSA, and 0.01% Tween-20. All components are added to the 384-well plate for a final concentration of 1 ng/well TrkA, 30 nM biotin-(E4Y)10 and 100 μM ATP in a volume of 20 μL. Each sample is at 5% DMSO. The plate is shaken for 1 minute at 1200 rpm, spun for 1 minute at 1000 rpm, then incubated for 40 minutes at room temperature. Just before use, working stocks of donor and acceptor beads from the AlphaScreen PY20 Detection Kit (PerkinElmer, Cat#676601M) are prepared in 25 mM Hepes pH 7.5, 100 mM EDTA. 0.01% BSA. Donor Beads solution (Streptavidin beads) is added (5 μL) to each well to final bead concentration of 10 μg/mL. The plate is incubated at room temperature for 20 minutes. Acceptor Beads solution (PY20 coated beads) are then added to each well (5 μL) to a final concentration of bead at 10 μg/mL. The plates are incubated at room temperature for 60 minutes. Fluorescence signal is recorded on the Envision reader. Phosphorylated substrate results in binding of the PY20 antibody and association of the donor and acceptor beads such that signal correlates with kinase activity. The signal vs. compound concentration is used to determine the IC50. Similar assays are used for TrkB and Trk C kinase.

Sequence of TrkC kinase (Q16288 32-839): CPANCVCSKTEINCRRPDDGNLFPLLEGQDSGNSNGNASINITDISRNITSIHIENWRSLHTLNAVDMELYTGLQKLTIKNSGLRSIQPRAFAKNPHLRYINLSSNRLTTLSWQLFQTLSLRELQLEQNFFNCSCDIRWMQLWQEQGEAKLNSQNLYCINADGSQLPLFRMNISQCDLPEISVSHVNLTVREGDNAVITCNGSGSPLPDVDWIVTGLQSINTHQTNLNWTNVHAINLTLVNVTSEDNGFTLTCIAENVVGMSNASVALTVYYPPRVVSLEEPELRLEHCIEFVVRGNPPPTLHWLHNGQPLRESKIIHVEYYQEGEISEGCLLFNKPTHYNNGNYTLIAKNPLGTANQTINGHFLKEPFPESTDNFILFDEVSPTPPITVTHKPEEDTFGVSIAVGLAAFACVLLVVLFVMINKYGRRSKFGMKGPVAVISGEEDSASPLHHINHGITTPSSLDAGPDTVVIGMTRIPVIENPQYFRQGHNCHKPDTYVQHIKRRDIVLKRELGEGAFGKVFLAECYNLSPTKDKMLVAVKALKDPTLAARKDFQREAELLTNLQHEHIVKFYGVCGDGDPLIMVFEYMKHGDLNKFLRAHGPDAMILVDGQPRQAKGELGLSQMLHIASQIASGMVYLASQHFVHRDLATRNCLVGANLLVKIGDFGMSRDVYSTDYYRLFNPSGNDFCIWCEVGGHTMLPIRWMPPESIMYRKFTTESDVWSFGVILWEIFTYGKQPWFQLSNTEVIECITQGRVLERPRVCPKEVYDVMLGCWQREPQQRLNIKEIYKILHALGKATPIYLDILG

`CCc1ccc(Nc2ncc(Cc3c[nH]c4ncc(C)cc34)cn2)cc1` [Compound P-3025, (4-Ethyl-phenyl)-[5-(5-methyl-1H-pyrrolo[2,3-b]pyridin-3-ylmethyl)-pyrimidin-2-yl]-amine] and `CCOc1ccc(Nc2ncc(Cc3c[nH]c4ncc(C)cc34)cn2)cc1` [Compound P-3026, (4-Ethoxy-phenyl)-[5-(5-methyl-1H-pyrrolo[2,3-b]pyridin-3-ylmethyl)-pyrimidin-2-yl]-amine] cannot be ordered by IC50: less than 10 nM for the first, less than 100 nM for the second.

`CCn1ccc(Nc2ncc(Cc3c[nH]c4ncc(C)cc34)cn2)n1` [Compound P-3035, (1-Ethyl-1H-pyrazol-3-yl)-[5-(5-methyl-1H-pyrrolo[2,3-b]pyridin-3-ylmethyl)-pyrimidin-2-yl]-amine] and `CCn1cc(Nc2ncc(Cc3c[nH]c4ncc(C)cc34)cn2)cn1` [Compound P-3036, (1-Ethyl-1H-pyrazol-4-yl)-[5-(5-methyl-1H-pyrrolo[2,3-b]pyridin-3-ylmethyl)-pyrimidin-2-yl]-amine] cannot be ordered by IC50: less than 1000 nM for the first, less than 1000 nM for the second.

Going from `Cc1cnc2[nH]cc(Cc3cnc(Nc4cc(-c5ccc(F)cc5)n[nH]4)nc3)c2c1` [Compound P-3028, [5-(4-Fluoro-phenyl)-2H-pyrazol-3-yl]-[5-(5-methyl-1H-pyrrolo[2,3-b]pyridin-3-ylmethyl)-pyrimidin-2-yl]-amine] to `Cc1cnc2[nH]cc(Cc3cnc(Nc4cc(C5CC5)n[nH]4)nc3)c2c1` [Compound P-3032, (5-Cyclopropyl-2H-pyrazol-3-yl)-[5-(5-methyl-1H-pyrrolo[2,3-b]pyridin-3-ylmethyl)-pyrimidin-2-yl]-amine], the IC50 rises from less than 100 nM to greater than 1000 nM.

`COc1cc(Nc2ncc(Cc3c[nH]c4ncc(C)cc34)cn2)ccc1F` [Compound P-3022, (4-Fluoro-3-methoxy-phenyl)-[5-(5-methyl-1H-pyrrolo[2,3-b]pyridin-3-ylmethyl)-pyrimidin-2-yl]-amine] and `COc1ccc(Nc2ncc(Cc3c[nH]c4ncc(C)cc34)cn2)cc1` [Compound P-3021, (4-Methoxy-phenyl)-[5-(5-methyl-1H-pyrrolo[2,3-b]pyridin-3-ylmethyl)-pyrimidin-2-yl]-amine] cannot be ordered by IC50: less than 1000 nM for the first, less than 1000 nM for the second.

`Cc1cnc2[nH]cc(Cc3cnc(Nc4cc(C(C)(C)C)n[nH]4)nc3)c2c1` [Compound P-3029, (5-tert-Butyl-2H-pyrazol-3-yl)-[5-(5-methyl-1H-pyrrolo[2,3-b]pyridin-3-ylmethyl)-pyrimidin-2-yl]-amine] and `Cc1cnc2[nH]cc(Cc3cnc(Nc4ccc(C(C)(C)C)cc4)nc3)c2c1` [Compound P-3030, (4-tert-Butyl-phenyl)-[5-(5-methyl-1H-pyrrolo[2,3-b]pyridin-3-ylmethyl)-pyrimidin-2-yl]-amine amine] cannot be ordered by IC50: less than 1000 nM for the first, less than 10 nM for the second.

`Cc1cnc2[nH]cc(Cc3cnc(Nc4ccc(S(C)(=O)=O)cc4)nc3)c2c1` [Compound P-3034, (4-Methanesulfonyl-phenyl)-[5-(5-methyl-1H-pyrrolo[2,3-b]pyridin-3-ylmethyl)-pyrimidin-2-yl]-amine] and `CSc1ccc(Nc2ncc(Cc3c[nH]c4ncc(C)cc34)cn2)cc1` [Compound P-3033, [5-(5-Methyl-1H-pyrrolo[2,3-b]pyridin-3-ylmethyl)-pyrimidin-2-yl]-(4-methylsulfanyl-phenyl)-amine] cannot be ordered by IC50: less than 1000 nM for the first, less than 100 nM for the second.

Compared with `CCCOc1ccc(Nc2ncc(Cc3c[nH]c4ncc(C)cc34)cn2)cc1` [Compound P-3024, [5-(5-Methyl-1H-pyrrolo[2,3-b]pyridin-3-ylmethyl)-pyrimidin-2-yl]-(4-propoxy-phenyl)-amine], `COc1ccc(Nc2ncc(Cc3c[nH]c4ncc(C)cc34)cn2)cn1` [Compound P-3020, (6-Methoxy-pyridin-3-yl)-[5-(5-methyl-1H-pyrrolo[2,3-b]pyridin-3-ylmethyl)-pyrimidin-2-yl]-amine] is lower in IC50: greater than 1000 nM for the first, less than 1000 nM for the second. The second is the more potent here.

`COc1ccc(Nc2ccc(Cc3c[nH]c4ncnc(OC)c34)c(F)n2)cn1` [Compound P-4001, [6-Fluoro-5-(4-methoxy-7H-pyrrolo[2,3-d]pyrimidin-5-ylmethyl)-pyridin-2-yl]-(6-methoxy-pyridin-3-yl)-amine] and `COc1ccc(Nc2ccc(Cc3c[nH]c4ncnc(C)c34)c(F)n2)cn1` [Compound P-4002, [6-Fluoro-5-(4-methyl-7H-pyrrolo[2,3-d]pyrimidin-5-ylmethyl)-pyridin-2-yl]-(6-methoxy-pyridin-3-yl)-amine] cannot be ordered by IC50: less than 10 nM for the first, less than 1000 nM for the second.

For `Cc1cnc2[nH]cc(Cc3cnc(Nc4ccc(C(O)(C(F)(F)F)C(F)(F)F)cc4)nc3)c2c1` [Compound P-3031, 1,1,1,3,3,3-Hexafluoro-2-{4-[5-(5-methyl-1H-pyrrolo[2,3-b]pyridin-3-ylmethyl)-pyrimidin-2-ylamino]-phenyl}-propan-2-ol], the IC50 was less than 100 nM.

tested on: BCR-FMS BaF3 cells; experiment: Splenomegaly mouse model, BCR-FMS BaF3 cells; assay type: in vivo; settings: dosed once per day at 10 mg per kg
Protocol: BaF3 cells are engineered with any of BCR-FMS, BCR-TRK1 or BCR-TRK2 to assess in vivo inhibitory effects of Fms, TrkA or TrkB inhibition, respectively. BaF3 cells are maintained in growth media (RPMI containing 10% FBS, 1% PenStrep, 1% NEAA, and 1% L-Glutamine, supplemented with 5% murine IL-3 and 1 mg/mL G418). Four days prior to start, 2×10^6 cells are inoculated into a T150 vented flask using the growth media and incubated at 37° C. in 5% CO2 for three days. One day prior to start, cells are collected by centrifugation and are suspended in growth media without IL-3. On the day of cell implant, the cells are collected by centrifugation, rinsed 3×20 mL with RPMI, then are suspended in 5.4 mL of media and counted, then adjusted with additional RPMI as needed to give 5×10^7 cells/mL. On day 1, female nu/nu mice at 5-6 weeks of age are injected intravenously with BaF3 cells injected injecting 0.1 mL (5×10^6) cells in the tail vein (mice without cell injected are included as control group). Compound stocks in dimethylsulfoxide are stored at room temperature protected from light. Stocks are diluted prior to dosing, diluting 22 μL of compound stock into 858 μL of diluent (or 50 μL into 1950 μL) to provide vehicle of 1.0% Polysorbate 80, 0.5% hydroxypropyl methyl cellulose, with final dimethylsulfoxide at 2.5% in all dosing suspensions and vehicle control. Dosing suspension is prepared prior to use, mixing by inversion and sonication in a water bath to make a uniform suspension. On days 10-18, mice are treated with vehicle only or the desired level of compound in vehicle, ˜0.2 mL per 25 gm mouse, once a day by oral gavage, or in some instances, twice per day. On day 18, mice are administered a final dose and two hours later a plasma sample is taken. At four hours following the final dose, mice are sacrificed, an additional plasma sample is collected and mouse spleens are removed and weighed. The average spleen weight of vehicle control group mice is compared to the average spleen weight of the test compound mice. Percent spleen growth inhibition is calculated as 100×[(spleen weight vehicle control-spleen weight test compound)/spleen weight vehicle control]. In some instances, the compounds were not tested in all of the assays as indicated by NA in the table below.

First: CCOc1ccc(Nc2ccc(Cc3c[nH]c4ncnc(C5CC5)c34)c(F)n2)cn1 [Compound P-4026, [5-(4-Cyclopropyl-7H-pyrrolo[2,3-d]pyrimidin-5-ylmethyl)-6-fluoro-pyridin-2-yl]-(6-ethoxy-pyridin-3-yl)-amine]
Second: CCOc1ccc(Nc2ccc(C(=O)c3c[nH]c4ncnc(C5CC5)c34)c(F)n2)cn1 [Compound P-4027, (4-Cyclopropyl-7H-pyrrolo[2,3-d]pyrimidin-5-yl)-[6-(6-ethoxy-pyridin-3-ylamino)-2-fluoro-pyridin-3-yl]-methanone]
The “% spleen growth inhibition, Fms” value of the first is higher: 41% for the first, −1.4% for the second.

Compared with `Cc1ccc(Nc2ccc(C(=O)c3c[nH]c4ncnc(C5CC5)c34)c(F)n2)cn1` [Compound P-4031, (4-Cyclopropyl-7H-pyrrolo[2,3-d]pyrimidin-5-yl)-[2-fluoro-6-(6-methyl-pyridin-3-ylamino)-pyridin-3-yl]-methanone], `CCc1ccc(Nc2ccc(C(=O)c3c[nH]c4ncnc(C5CC5)c34)c(F)n2)cn1` [Compound P-4029, (4-Cyclopropyl-7H-pyrrolo[2,3-d]pyrimidin-5-yl)-[6-(6-ethyl-pyridin-3-ylamino)-2-fluoro-pyridin-3-yl]-methanone] is higher in “% spleen growth inhibition, Fms” value: 29% for the first, 66% for the second.

First: Fc1nc(Nc2ccc(C3CC3)nc2)ccc1Cc1c[nH]c2ncnc(NCC(F)(F)F)c12 [Compound P-4130, 5-[[6-[(6-cyclopropyl-3-pyridyl)amino]-2-fluoro-3-pyridyl]methyl]-N-(2,2,2-trifluoroethyl)-7H-pyrrolo[2,3-d]pyrimidin-4-amine]
Second: Fc1nc(NC2CCC(F)(F)CC2)ccc1Cc1c[nH]c2ncnc(NCC(F)(F)F)c12 [Compound P-4128, 5-[[6-[(4,4-difluorocyclohexyl)amino]-2-fluoro-3-pyridyl]methyl]-N-(2,2,2-trifluoroethyl)-7H-pyrrolo[2,3-d]pyrimidin-4-amine]
The “% spleen growth inhibition, Fms” value of the first is higher: 70% for the first, 15% for the second.

First: CCOc1ccc(Nc2ccc(C(=O)c3c[nH]c4ncc(C)cc34)c(F)n2)cn1 [Compound P-3045, [6-(6-ethoxy-pyridin-3-ylamino)-2-fluoro-pyridin-3-yl]-(5-methyl-1H-pyrrolo[2,3-b]pyridin-3-yl)-methanone]
Second: CCOc1ncnc2[nH]cc(Cc3ccc(Nc4cnn(CC)c4)nc3F)c12 [Compound P-4012, [5-(4-Ethoxy-7H-pyrrolo[2,3-d]pyrimidin-5-ylmethyl)-6-fluoro-pyridin-2-yl]-(1-ethyl-1H-pyrazol-4-yl)-amine]
The “% spleen growth inhibition, Fms” value of the first is lower: 11% for the first, 24% for the second.

For `FC1(F)CCC(Nc2ncc(Cc3c[nH]c4ncc(Cl)cc34)cn2)CC1` [Compound P-3004], the “% spleen growth inhibition, Fms” value was 43%.
